In PMC12657321, “Pre-clinical evaluation of a potent and effective Pin1-degrading agent in pancreatic cancer” (Molecular Therapy Oncology, 2025):
Non-standard residues stand in square brackets, D forms with d. Residues, ends and D or L forms follow the SMILES beside them. *: point of attachment. Trp(6-Cl) = N[C@@H](Cc1c[nH]c2cc(Cl)ccc12)C(=O)O; Pip = O=C(O)[C@@H]1CCCCN1; ClAc = O=C(CCl)*

Key:
[1] = Stability in plasma from esterase-deficient (ES1e) mice; type: in vitro ADME; settings: mouse, 37°C, up to 6 h, acetonitrile quench, LC-MS/MS
Protocol: A solution of a Pin1 inhibitor was spiked into blank plasma at 1 μg/mL in various solutions, including an aqueous buffer (1× phosphate-buffered saline; Fisher Scientific, Fair Lawn, NJ), human plasma (Innovative Research Inc., Novi, MI), wild-type mouse plasma (Innovative Research Inc., Novi, MI), plasma form esterase-deficient mice (City of Hope, Duarte, CA), and plasma from Black 6-Cg mice (City of Hope, Duarte, CA).
The spiked plasma samples were incubated at 37°C for up to 6 h. At each designated time point, a 20 μL aliquot of the incubation sample was removed and quenched in 100 μL of acetonitrile. At the end of the incubation, the quenched samples were vortexed and centrifuged for 10 min at 4°C and 20,000 × g. The resulting supernatant was reconstituted and analyzed by LC-MS/MS.
Table S2. Stability half-life of agents reported in Table 1 after incubation at 37 °C in various media. Acq represents aqueous buffer composed of 1x phosphate buffered saline (Fisher Scientific, Fair Lawn, NJ); human represents human plasma (Innovative Research Inc., Novi, MI); mouse wt represents wild type mouse plasma (Innovative Research Inc., Novi, MI); mouse ES1e represents plasma form esterase deficient mice (City of Hope, Duarte, CA); mouse B6-Cg represents plasma from black 6-Cg mice (City of Hope, Duarte, CA). See Figure 1 for the chemical structures of these compounds.
Compound Acq Human Mouse Mouse ES1e Mouse

[2] = molecular target: T1, Pin1 in KPC cells (Mus musculus, UniProt Q9QUR7); experiment: Pin1 degradation by western blot in KPC cells; type: cell-based; settings: 0.5-15 μM for 24 h, Pin1 relative to β-actin
T1 construct: endogenous in cells; host or cells: KPC
T1 sequence (Q9QUR7 whole entry): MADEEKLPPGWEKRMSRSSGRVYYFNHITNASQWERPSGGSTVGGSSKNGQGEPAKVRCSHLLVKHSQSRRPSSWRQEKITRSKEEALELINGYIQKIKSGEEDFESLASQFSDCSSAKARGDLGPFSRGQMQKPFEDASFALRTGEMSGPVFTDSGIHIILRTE
Protocol: (§1) To ascertain that the plasma-stable agent 164B8 retained its ability to induce Pin1 degradation in cells, we tested it in three pancreatic cancer cell lines—human BxPC3 and MIA PaCa-2, and the mouse pancreatic cancer cell line KPC—using western blot analysis (Figure 2).
(§2) Figure 2 Degradation of Pin1 in different cell lines in response to 164B8 treatment BxPC3, MIA PaCa-2, and KPC were each treated with 0.1% DMSO and concentrations of 164B8 ranging between 0.5 and 15 μM for 24 h, and Pin1 levels were quantified with respect to β-actin using a specific anti-Pin1 antibody and western blotting (uncropped blots are reported in Figure S6).
(§3) At the end of the treatments, cells were lysed with a lysis buffer containing 20 mM Tris (pH 7.4), 1% Triton X-100, 5 mM EDTA, 0.1% sodium dodecyl sulfate (SDS), 1% IGEPAL, 0.5% sodium deoxycholate, 120 mM NaCl, and a protease inhibitor cocktail and PhosSTOP (Sigma-Aldrich). Lysates were then centrifuged at 16,000 × g for 20 min at 4°C, and the supernatants were collected. Protein concentrations were determined using the Pierce BCA Protein Assay Kit (Thermo Fisher Scientific) according to the manufacturer’s protocol. For traditional western blotting (Figure 2), samples were loaded onto precast Bis-Tris gels and subsequently transferred onto PVDF membranes. […]

[3] = tested on: CD-1 mice; type: in vivo, mouse
Protocol: (§4) The effect of Pin1 degradation by 164B8 on cell viability was assessed using live-cell analysis (IncuCyte S3). […] Furthermore, to evaluate the acute single-dose toxicity of 164B8 in vivo, CD-1 immune-competent mice were exposed to increasing doses of 164B8. […] Therefore, a maximum tolerated dose was not reached (Figure S12).
Figure S12: A) Acute toxicity study at 100mg/kg. In this preliminary safety study, 3 CD -1 mice were treated with a single dose of 100 mg/kg of 164B8. The injections were administered intraperitoneally (ip), and the body weight of the mice was measured for several days after the injection. B) Body weight control during the in -vivo efficacy study. The body weights of the mice in the three groups were measured on the day of treatment (day 0) and 7 and 14 days after.
(§5) (1 picture or pasted object on this page, not shown here)

[4] = molecular target: T2, Pin1 in MIA PaCa-2 cells (Homo sapiens, UniProt Q13526); experiment: Pin1 degradation by western blot in MIA PaCa-2 cells; type: cell-based; settings: MIA PaCa-2, 0.5-15 μM for 24 h, Pin1 relative to β-actin
T2 construct: endogenous in cells; host or cells: BxPC3, MIA PaCa-2
T2 sequence (Q13526 whole entry): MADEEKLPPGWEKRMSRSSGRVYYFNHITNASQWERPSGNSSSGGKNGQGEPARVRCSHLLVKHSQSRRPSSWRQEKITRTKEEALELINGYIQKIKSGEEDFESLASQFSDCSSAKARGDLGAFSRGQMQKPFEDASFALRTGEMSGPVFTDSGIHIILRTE
Protocol: as §1, §2, §3

[5] = molecular target: T3, human Pin1 (Homo sapiens, UniProt Q13526); experiment: Covalent complex formation with Pin1 by mass spectrometry; type: binding; settings: ligand 20 μM, 2:1 ligand-to-protein ratio, 10 min incubation
T3 construct: Residues 1–163 of human Pin1 were expressed with a thrombin cleavage site and a HisTag at the N-terminus; 6xHis (N); thrombin cleavage site (N); made in house; host or cells: E. coli
T3 sequence (Q13526 whole entry, the tested form may be a part): as the sequence (Q13526 whole entry) above

[6] = tested on: KPC cells; type: cell-based, mouse; settings: 72 h
Protocol: as §4
Figure S11: Mia PaCa-2 and KPC cells were treated with different doses of 164B8, and the
IncuCyte S3 live-cell analysis system was used to monitor the agent’s activity every 3 hours for
as §5

In the case of `CNC(=O)[C@H](Cc1c[nH]c2ccccc12)NC(=O)[C@@H]1CCCCN1C(=O)[C@H](Cc1c[nH]c2cc(Cl)ccc12)NC(=O)CCl` [164B8] (ClAc-[Trp(6-Cl)]-[Pip]-Trp-NHMe), the half-life at 1 μg/mL [1] is reported as > 5 h, the “DC50 of Pin1 degradation” value [2] is reported as “sub-micromolar” and the Acute single-dose toxicity ([3]; 100 mg/kg single dose intraperitoneally (highest soluble dose), monitored over 2 weeks, 3 mice) is reported as “did not produce any observable signs of acute toxicity”. For the same compound, the Maximum tolerated dose ([3]; single intraperitoneal dose up to 100 mg/kg) was “not reached”, the “DC50 of Pin1 degradation” value [4] was “sub-micromolar” and the “% Complex (MS)” value [5] was “∼100%”. It also gave an EC50 [6] of 5.3 µM.
